For this series the following is noted: pampa; pH 5.0; 30.0 min; 50.0 µM.

Structures are written as SMILES.

A word on the Papp: it is a coefficient for how fast a substance crosses the barrier. The low end stands for slow passage, the high end for fast passage.

Molecule `CCN(CC)C(=O)c1coc(COc2ccc3c(c2)C(c2cccc(F)c2)N(C(=O)C(C)C)CC3)n1` (stereo not given) had a Papp of more than 1000 ×10⁻⁶ cm/s.
For `O=C(COc1ccccc1)NCC(c1cccs1)S(=O)(=O)c1ccc(Cl)cc1` (stereo not given) the value was 855 ×10⁻⁶ cm/s.
Take `COc1ccc(Cn2c(C(=O)O)c(CNCc3cccc(OC)c3)c3ccc(C)cc32)cc1`: the Papp was determined as 931 ×10⁻⁶ cm/s.
With `Cc1ccc(CNCc2cn[nH]c2-c2ccc(C)cc2)cc1`, the Papp is 410 ×10⁻⁶ cm/s.
For `COc1cccc(CN2CCNc3cc(Nc4ccccc4)ncc3C2)c1` the value was 187 ×10⁻⁶ cm/s; for `O=C(O)C1CCN(c2ncc(-c3ccc4c(c3)OCCCO4)s2)CC1`, more than 1000 ×10⁻⁶ cm/s; for `COc1cc(C(=O)N2CCN(c3cc(Cl)ccc3Cl)CC2)cc(OC)c1OC`, more than 1000 ×10⁻⁶ cm/s.
For `CCOC(=O)N1CCN(C(=O)Cn2sc3nc(C)cc(C)c3c2=O)CC1`, the Papp turned out to be 19.1 ×10⁻⁶ cm/s.
Molecule `CCOc1cc(-c2nccc3cc(OC)c(OC)cc23)cc(OCC)c1OCC` displayed a Papp of more than 1000 ×10⁻⁶ cm/s.
Molecule `Nc1c(S(=O)(=O)c2cccs2)c2nc3ccccc3nc2n1Cc1ccccc1` registered a Papp of more than 1000 ×10⁻⁶ cm/s.
For `O=C(NC1CCCN(c2cc(-c3ccc(F)cc3)[nH]n2)C1)c1ccc2ncccc2c1` (stereo not given), the Papp was more than 1000 ×10⁻⁶ cm/s.
For `COc1ccc(-n2nc(C3CCCN(C(=O)Nc4ccccc4)C3)[nH]c2=O)cc1` (stereo not given) the value was 315 ×10⁻⁶ cm/s; for `COC(=O)Nc1nc2ccc(SC(C)C)cc2[nH]1`, 510 ×10⁻⁶ cm/s; for `CC(=O)Nc1ccc(NC(=O)C(NS(=O)(=O)c2ccc(Br)s2)c2ccccc2)cc1` (stereo not given), 16.2 ×10⁻⁶ cm/s.
On to `CCOC(=O)C1=C(CN(CC)Cc2ccccc2)NC(=O)NC1c1ccc(OC(C)C)cc1` (stereo not given), for which the Papp is more than 1000 ×10⁻⁶ cm/s.
For `Clc1cccc(COc2cncc(N3CCNCC3)n2)c1` the value was 742 ×10⁻⁶ cm/s; for `O=C(Nc1cccnc1)c1cccs1`, 181 ×10⁻⁶ cm/s.
For `Cc1nn2c(c1-c1ccccc1OCc1ccccc1)N(C(=O)Cc1ccc3c(c1)OCO3)CCC2` the value was more than 1000 ×10⁻⁶ cm/s.
For the molecule `O=C(c1ccc2ncccc2c1)N1CCc2c(nc3cc[nH]n3c2=O)C1`, the Papp was 5.6 ×10⁻⁶ cm/s.
Take `COC(=O)Nc1nc2ccc(C(=O)c3ccccc3)cc2[nH]1`: the Papp was 455 ×10⁻⁶ cm/s.
For `CCOC(=O)N1CCN(Cc2nc3cc(NC(=O)c4ccc(OC)cc4)ccc3n2C(C)C)CC1` the value was 808 ×10⁻⁶ cm/s; for `CN(C)CCOC1=Cc2ccccc2Sc2ccc(Cl)cc21`, 857 ×10⁻⁶ cm/s; for `COc1ccccc1C(=O)NC1CCCc2c1[nH]c1c(Cl)cccc21` (stereo not given), 607 ×10⁻⁶ cm/s.
For `COc1ccc(-c2nc3c(c(SCC(=O)Nc4ccc(C(=O)O)cc4)n2)Cc2ccccc2O3)cc1` the value was 36.6 ×10⁻⁶ cm/s; for `CCC(Sc1nc2ccccc2c2nc(CCc3c(C)n[nH]c3C)nn12)C(=O)Nc1ccc(F)cc1` (stereo not given), 205 ×10⁻⁶ cm/s; for `CCc1ccccc1Nc1ncnc2c1cnn2-c1ccc(Cl)cc1`, 100 ×10⁻⁶ cm/s.
For `CNC(=O)c1ccccc1Nc1nc(Nc2ccc(N3CCOCC3)cc2OC)ncc1Cl` the value was 145 ×10⁻⁶ cm/s; for `CC1=C[C@@H](CNCc2cccnc2)[C@H](C(C)C)C[C@H]1Cc1nnc(-c2ccc([N+](=O)[O-])cc2)o1`, 984 ×10⁻⁶ cm/s.
`Cc1ccc(S(=O)(=O)Nc2ccccc2C(=O)Nc2nc(-c3ccccc3)cs2)cc1`: the Papp is more than 1000 ×10⁻⁶ cm/s.
For `CC(C)c1ccccc1-c1nc(NCc2ccc(-c3cccnc3)cc2)c2ccccc2n1` the value was more than 1000 ×10⁻⁶ cm/s.
The molecule `Cc1nc2nc(NC(=O)c3ccc(C(C)(C)C)cc3)[nH]n2c(=O)c1Cl` yielded a Papp of 83.9 ×10⁻⁶ cm/s.
For `O=C(NCC1CCOCC1)C1CC(=O)N(c2n[nH]c3cc(Br)ccc23)C1` (stereo not given) the value was 10.6 ×10⁻⁶ cm/s; for `COc1cc2c(c(OC)c1OC)-c1ccc(SC)c(=O)cc1C(N)CC2` (stereo not given), 55 ×10⁻⁶ cm/s; for `CCOc1ccccc1C(=O)Nc1ccncc1C(=O)Nc1cccc(S(=O)(=O)C(F)(F)F)c1`, 139 ×10⁻⁶ cm/s.
Take `NC(=O)C1CCN(c2nccc(-c3ccc4c(c3)OCCO4)n2)CC1`: the apparent permeability coefficient (Papp) is 191 ×10⁻⁶ cm/s.
The molecule `COc1cccc(CNC(=O)CCCn2nc(C)c3c(C)n(-c4ccc(C)cc4)nc3c2=O)c1OC` had a Papp of 446 ×10⁻⁶ cm/s.
Molecule `Cc1cccc(-n2ncc3c2CCCC3NC(=O)c2c(F)ccc(F)c2F)c1C` (stereo not given) displayed a Papp of 552 ×10⁻⁶ cm/s.
For `NC1(c2ccccc2Cl)CCCCC1=O` (stereo not given) the value was 11.1 ×10⁻⁶ cm/s; for `CCOc1cc(CNc2ccc(O)cc2)ccc1OCc1ccc(Cl)cc1`, 187 ×10⁻⁶ cm/s; for `COc1ccc(C(=O)N2CCCC(c3nn(-c4ccc(OC)cc4)c(=O)[nH]3)C2)cc1` (stereo not given), 255 ×10⁻⁶ cm/s.
On to `CNc1oc(-c2cccc(Cl)c2Cl)nc1C#N`, for which the Papp amounted to 589 ×10⁻⁶ cm/s.
`Cc1ccc2nc(-c3cc(NC(=O)c4ccc5c(c4)OCCO5)ccc3Cl)oc2c1`: the Papp was found to be 28.6 ×10⁻⁶ cm/s.
For `O=S(=O)(c1ccccc1)c1nc(-c2ccc(F)cc2)oc1N1CCCCCC1` the value was more than 1000 ×10⁻⁶ cm/s; for `CCCN1C(CC(C)C)=NS(=O)(=O)c2cc(NC(=O)c3cccs3)ccc21`, 275 ×10⁻⁶ cm/s; for `CC(C)(C)c1ccc(S(=O)(=O)N2CCC(c3ccncc3)CC2)cc1`, 754 ×10⁻⁶ cm/s.
For `COc1ccc(Cn2c(C(=O)O)c(CNCc3ccco3)c3ccc(C)cc32)cc1` the value was 618 ×10⁻⁶ cm/s; for `Cc1cc(C)cc(C(=O)Nc2ccc3c(N4CCCC4)ncnc3c2)c1`, 506 ×10⁻⁶ cm/s; for `O=C(Nc1ccc(Cl)cc1)C(NS(=O)(=O)c1cccs1)c1ccccc1` (stereo not given), 443 ×10⁻⁶ cm/s.
For `Cc1cnc(SCc2ccccn2)nc1C1CCCN(C(=O)c2scc3c2CCCC3)C1` (stereo not given) the value was more than 1000 ×10⁻⁶ cm/s; for `COc1ccc(-n2nc(C3CCN([S+](=O)([O-])c4c(C)noc4C)CC3)[nH]c2=O)cc1`, 308 ×10⁻⁶ cm/s; for `COc1ccccc1N1CCN(CCN(C(=O)c2ccc(F)cc2)c2ccccn2)CC1`, 73 ×10⁻⁶ cm/s.
Turning to `c1ccc(-c2cn[nH]c2)cc1`, the Papp turned out to be 51.2 ×10⁻⁶ cm/s.
As to `O=C(Cc1cccs1)NCc1nnc2ccc(-c3ccccc3)nn12`, the Papp was found to be 55.9 ×10⁻⁶ cm/s.
`CN1CCCC(CC2c3ccccc3Sc3ccccc32)C1` (stereo not given): the Papp was more than 1000 ×10⁻⁶ cm/s.
As for `O=C(c1cc2ccccc2[nH]1)N1CCc2c(n(Cc3cccnc3)n(CCc3ccccc3)c2=O)C1`, the Papp turned out to be 229 ×10⁻⁶ cm/s.
In turn, `COc1cc2cc(CN3CCC(N(C)C)C3)c(-c3cccc(Cl)c3)nc2cc1OC` (stereo not given) displayed a Papp of 243 ×10⁻⁶ cm/s.
For `O=C(C1CC(=O)N(c2n[nH]c3ccccc23)C1)N1CCC(c2noc3cc(F)ccc23)CC1` (stereo not given) the value was 635 ×10⁻⁶ cm/s; for `COc1ccccc1-c1[nH]nc2ncc(-c3ccc(C)cc3)nc12`, 1.92 ×10⁻⁶ cm/s.
Take `Cc1cc(NS(=O)(=O)c2ccc3c(c2)CCC(=O)N3)ccc1F`: the Papp was 463 ×10⁻⁶ cm/s.
On to `COc1ccc2[nH]c3c(c2c1)CCNC31CCN(S(=O)(=O)c2c(C)noc2C)CC1`, for which the Papp was found to be 161 ×10⁻⁶ cm/s.
For `COc1ccc(-n2nc(C3CCN(C(=O)Cc4ccc(F)cc4)CC3)[nH]c2=O)cc1` the value was 410 ×10⁻⁶ cm/s; for `Cc1c(C(=O)NN2CCCCC2)nn(-c2ccc(Cl)cc2Cl)c1-c1ccc(Cl)cc1`, more than 1000 ×10⁻⁶ cm/s.
With `CSc1nnc2c3ccccc3n(CCc3ccccc3)c2n1`, the Papp was more than 1000 ×10⁻⁶ cm/s.
On to `CN1CCC(N(Cc2cccs2)c2ccccc2)CC1`, for which the Papp was 254 ×10⁻⁶ cm/s.
For `CC1=C[C@@H](CNC(C)C)[C@H](C(C)C)C[C@H]1Cc1nnc(-c2ccncc2)o1` the value was 41.3 ×10⁻⁶ cm/s; for `O=c1[nH]c(N2CCOCC2)nc2c1CCN(Cc1cc(Cl)ccc1F)CC2`, 46.3 ×10⁻⁶ cm/s; for `CCn1ncc(NC(=O)Cn2ncc3cc(-c4cccc(OC)c4)ccc32)n1`, 853 ×10⁻⁶ cm/s.
Consider `COc1ccc(-n2nc3c(N4CCCC(C(=O)NCCc5ccc(C)cc5)C4)nnc(C)c3c2C)cc1` (stereo not given), for which the Papp was 467 ×10⁻⁶ cm/s.
Regarding `Oc1ccc(-c2nc(C3CC3)nc3c2CCN(CC2CCCCC2)CC3)cc1`, the apparent permeability coefficient (Papp) worked out at 190 ×10⁻⁶ cm/s.
For `CCCCn1cc2c(c1-c1ccc(Br)cc1)c(=O)n(C)c(=O)n2C` the value was more than 1000 ×10⁻⁶ cm/s; for `COc1ccc(-c2noc(CSc3nnc(Cc4ccccc4)n3-c3ccc(F)cc3)n2)cc1`, more than 1000 ×10⁻⁶ cm/s; for `Cc1ccnc(NC(=S)N2CCN(c3ccc(N)cc3)CC2)c1`, 4.13 ×10⁻⁶ cm/s.
`CC(C)Oc1ccc(C(=O)Nc2ccc3c(c2)CCCN3C(=O)c2cccs2)cc1` came in with a Papp of 800 ×10⁻⁶ cm/s.
For the molecule `CCN1CCN(c2ncc3c(n2)CCN(Cc2cc(Br)cs2)C3)CC1`, the Papp was determined as 77.1 ×10⁻⁶ cm/s.
Take `Cn1cnc(-c2nccc3c(=O)[nH]c(OCCCC(F)(F)F)nc23)c1`: the Papp came to 78.7 ×10⁻⁶ cm/s.
For `CCNC(=O)c1coc(COc2ccc3c(c2)C(c2ccc(F)cc2)N(C(=O)CC(C)C)CC3)n1` (stereo not given) the value was more than 1000 ×10⁻⁶ cm/s; for `COc1ccc(CCNC(=O)Cn2c(=O)c3cccn3c3ccc(F)cc32)cc1OC`, 317 ×10⁻⁶ cm/s.
`CN(C)C(=O)c1nc(-c2ccc(Cl)cc2Cl)c2cnccn12` showed a Papp of more than 1000 ×10⁻⁶ cm/s.
`CN1CCN(c2ccc(Nc3c4ccccc4nc4ccccc34)cc2)CC1` gave a Papp of 3.75 ×10⁻⁶ cm/s.
`Cc1ccc(NC2=C(c3ccc(C(F)(F)F)cc3)C(=O)c3ccccc32)cc1F` showed a Papp of 574 ×10⁻⁶ cm/s.
`CCOC(=O)c1ccc(N2C(=O)c3n[nH]c(-c4ccco4)c3C2c2ccc(C)cc2)cc1` (stereo not given): the Papp was determined as 231 ×10⁻⁶ cm/s.
`CCCCCn1c(CCCNC(=O)c2ccccc2OC)nc2ccccc21` yielded a Papp of 491 ×10⁻⁶ cm/s.
Molecule `COc1ccc(N(C)C(=O)c2cc3c(s2)-c2ccccc2OC3)cc1` gave a Papp of 963 ×10⁻⁶ cm/s.
For `FC(F)(F)c1ccc(CN2CCNc3cc(Nc4ccccc4)ncc3C2)cc1` the value was 21.1 ×10⁻⁶ cm/s; for `Nc1ncc(S(=O)(=O)N2CCN(c3ccccc3)CC2)cn1`, 6.73 ×10⁻⁶ cm/s; for `CC1=Nc2cc(C(=O)NCCc3ccccc3)ccc2Sc2c(C)ccc(C)c21`, 466 ×10⁻⁶ cm/s.
For `COc1ccccc1CNS(=O)(=O)c1ccc(-c2cnc(C3CC3)o2)cc1` the value was more than 1000 ×10⁻⁶ cm/s; for `Cc1c(CN(C)c2cc(C3CC(O)C3)nc(N)n2)[nH]c2ccccc12` (stereo not given), 44.8 ×10⁻⁶ cm/s; for `COC(=O)c1cc2occc2n1Cc1nc(-c2ccc(C)cc2)oc1C`, 257 ×10⁻⁶ cm/s.
For `COc1ccccc1CN1CCNc2cc(Nc3ccccc3)ncc2C1` the value was 22.3 ×10⁻⁶ cm/s.
On to `COc1ccc(CN2CCNc3cc(Nc4ccccc4)ncc3C2)cc1O`, for which the Papp amounted to 3.07 ×10⁻⁶ cm/s.
`COc1ccc(OC)c(Nc2c3c(nc4ccccc24)CCC3)c1` gave a Papp of 129 ×10⁻⁶ cm/s.
Turning to `CC(=O)NCCNC[C@@H]1C=C(C)[C@H](Cc2nnc(-c3ccccc3)o2)C[C@H]1C(C)C`, the Papp amounted to 25.8 ×10⁻⁶ cm/s.
`C[C@@]1(c2ncncc2F)NC(=O)c2cc(-c3cn[nH]c3)ccc21`: the Papp is more than 1000 ×10⁻⁶ cm/s.
The molecule `CN(C)CC/C=C1\c2ccccc2Sc2ccc(Cl)cc21` displayed a Papp of 531 ×10⁻⁶ cm/s.
